Tests used:
[1] = target: Testis-specific serine/threonine-protein kinase 3 (Homo sapiens) (UniProt Q96PN8); details: Compound concentration 1000.0 nM
[2] = target: Vascular endothelial growth factor receptor 3 (Homo sapiens) (UniProt P35916); details: Compound concentration 1000.0 nM
[3] = target: Beta-2 adrenergic receptor (Homo sapiens) (UniProt P07550); details: Compound concentration 10.0 uM
[4] = target: 5-hydroxytryptamine receptor 2B (Homo sapiens, UniProt P41595); assay: GPCRScan assay: inhibition of 5-HT2B; design: radioligand conc. used [nm] 1.0 – 2.0, parental cells stable HEK
[5] = target: Dual specificity mitogen-activated protein kinase kinase 5 (Homo sapiens) (UniProt Q13163); details: Compound concentration 1000.0 nM
[6] = target: Serine/threonine-protein kinase WNK4 (Homo sapiens) (UniProt Q96J92); details: Compound concentration 1000.0 nM
[7] = target: Hormonally up-regulated neu tumor-associated kinase (Homo sapiens) (UniProt P57058); details: Compound concentration 1000.0 nM
[8] = target: Rhodopsin kinase GRK7 (Homo sapiens) (UniProt Q8WTQ7); details: Compound concentration 1000.0 nM
[9] = target: Dual specificity mitogen-activated protein kinase kinase 1 (Homo sapiens) (UniProt Q02750); details: Compound concentration 1000.0 nM
[10] = target: BDNF/NT-3 growth factors receptor (Homo sapiens) (UniProt Q16620); details: Compound concentration 1000.0 nM
Sequence of BDNF/NT-3 growth factors receptor (Homo sapiens) (Q16620 32-822 limits assumed): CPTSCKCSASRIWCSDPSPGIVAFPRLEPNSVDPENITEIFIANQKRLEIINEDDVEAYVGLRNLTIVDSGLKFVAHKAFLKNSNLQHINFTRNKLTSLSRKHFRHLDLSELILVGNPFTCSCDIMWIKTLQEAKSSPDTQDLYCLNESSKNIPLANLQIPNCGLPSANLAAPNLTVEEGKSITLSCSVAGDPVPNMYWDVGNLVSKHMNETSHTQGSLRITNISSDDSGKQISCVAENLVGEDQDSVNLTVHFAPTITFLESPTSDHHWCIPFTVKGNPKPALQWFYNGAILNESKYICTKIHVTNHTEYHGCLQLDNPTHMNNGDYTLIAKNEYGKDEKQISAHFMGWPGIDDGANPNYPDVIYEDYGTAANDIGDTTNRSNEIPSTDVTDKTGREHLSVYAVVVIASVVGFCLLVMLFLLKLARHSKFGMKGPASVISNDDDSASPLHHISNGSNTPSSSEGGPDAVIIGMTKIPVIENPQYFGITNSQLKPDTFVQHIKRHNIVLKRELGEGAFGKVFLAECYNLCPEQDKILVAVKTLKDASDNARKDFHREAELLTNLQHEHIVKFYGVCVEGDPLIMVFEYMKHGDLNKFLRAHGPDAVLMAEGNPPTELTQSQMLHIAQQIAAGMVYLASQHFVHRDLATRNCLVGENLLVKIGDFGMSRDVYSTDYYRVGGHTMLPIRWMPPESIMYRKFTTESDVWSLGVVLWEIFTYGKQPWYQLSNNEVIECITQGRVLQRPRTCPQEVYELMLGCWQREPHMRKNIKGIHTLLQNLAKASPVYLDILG

[11] = target: Kappa-type opioid receptor (Homo sapiens) (UniProt P41145); details: Compound concentration 10.0 uM
Sequence of Kappa-type opioid receptor (Homo sapiens) (P41145 whole entry): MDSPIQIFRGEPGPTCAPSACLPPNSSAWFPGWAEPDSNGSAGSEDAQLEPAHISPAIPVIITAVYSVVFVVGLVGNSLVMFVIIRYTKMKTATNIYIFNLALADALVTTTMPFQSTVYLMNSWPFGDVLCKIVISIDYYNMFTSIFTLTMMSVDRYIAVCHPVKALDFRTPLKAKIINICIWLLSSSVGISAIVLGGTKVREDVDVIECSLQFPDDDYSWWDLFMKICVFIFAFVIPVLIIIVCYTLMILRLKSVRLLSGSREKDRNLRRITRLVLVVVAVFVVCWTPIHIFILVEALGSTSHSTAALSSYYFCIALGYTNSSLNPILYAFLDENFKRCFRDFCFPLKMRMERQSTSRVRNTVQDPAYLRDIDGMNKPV

[12] = target: Ephrin type-A receptor 8 (Homo sapiens) (UniProt P29322); details: Compound concentration 1000.0 nM
[13] = target: Ribosomal protein S6 kinase alpha-4 (Homo sapiens) (UniProt O75676); details: Compound concentration 1000.0 nM
Sequence of Ribosomal protein S6 kinase alpha-4 (Homo sapiens) (O75676 whole entry, looked up): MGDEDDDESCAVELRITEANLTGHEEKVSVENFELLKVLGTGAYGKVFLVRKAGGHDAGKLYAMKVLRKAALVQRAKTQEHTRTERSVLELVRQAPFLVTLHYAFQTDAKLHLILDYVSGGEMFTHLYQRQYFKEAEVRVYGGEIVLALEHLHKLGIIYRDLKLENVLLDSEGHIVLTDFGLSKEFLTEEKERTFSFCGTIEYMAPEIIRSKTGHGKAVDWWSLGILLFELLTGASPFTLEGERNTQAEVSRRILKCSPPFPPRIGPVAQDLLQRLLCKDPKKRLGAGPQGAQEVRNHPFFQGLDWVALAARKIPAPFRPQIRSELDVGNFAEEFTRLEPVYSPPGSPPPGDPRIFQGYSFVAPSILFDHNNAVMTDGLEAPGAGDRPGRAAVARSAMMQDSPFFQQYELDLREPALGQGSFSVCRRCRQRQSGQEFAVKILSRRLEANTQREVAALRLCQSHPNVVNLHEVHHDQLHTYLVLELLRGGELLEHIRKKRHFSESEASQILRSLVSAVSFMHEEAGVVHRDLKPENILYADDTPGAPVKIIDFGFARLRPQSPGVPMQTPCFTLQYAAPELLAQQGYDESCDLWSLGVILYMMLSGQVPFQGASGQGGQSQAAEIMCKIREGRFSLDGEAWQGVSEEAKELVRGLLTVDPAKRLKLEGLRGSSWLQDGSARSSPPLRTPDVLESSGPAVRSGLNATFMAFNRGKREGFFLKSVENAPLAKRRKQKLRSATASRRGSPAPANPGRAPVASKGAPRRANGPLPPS

[14] = target: Aurora kinase A (Homo sapiens) (UniProt O14965); details: Compound concentration 1000.0 nM
[15] = target: Serine/threonine-protein kinase D1 (Homo sapiens) (UniProt Q15139); details: Compound concentration 1000.0 nM
[16] = target: Alpha-2C adrenergic receptor (Homo sapiens) (UniProt P18825); details: Compound concentration 10.0 uM
[17] = target: Megakaryocyte-associated tyrosine-protein kinase (Homo sapiens) (UniProt P42679); details: Compound concentration 1000.0 nM
[18] = target: Non-receptor tyrosine-protein kinase TYK2 (Homo sapiens) (UniProt P29597); details: Compound concentration 1000.0 nM
[19] = target: Serine/threonine-protein kinase Nek11 (Homo sapiens) (UniProt Q8NG66); details: Compound concentration 1000.0 nM
[20] = target: Homeodomain-interacting protein kinase 3 (Homo sapiens) (UniProt Q9H422); details: Compound concentration 1000.0 nM
[21] = tested on: Tyrosine-protein kinase ABL1 (Homo sapiens), P00519 [T315I]; details: Compound concentration 1000.0 nM
[22] = target: Tyrosine-protein kinase JAK1 (Homo sapiens) (UniProt P23458); details: Compound concentration 1000.0 nM
Sequence of Tyrosine-protein kinase JAK1 (Homo sapiens) (P23458 whole entry, canonical isoform): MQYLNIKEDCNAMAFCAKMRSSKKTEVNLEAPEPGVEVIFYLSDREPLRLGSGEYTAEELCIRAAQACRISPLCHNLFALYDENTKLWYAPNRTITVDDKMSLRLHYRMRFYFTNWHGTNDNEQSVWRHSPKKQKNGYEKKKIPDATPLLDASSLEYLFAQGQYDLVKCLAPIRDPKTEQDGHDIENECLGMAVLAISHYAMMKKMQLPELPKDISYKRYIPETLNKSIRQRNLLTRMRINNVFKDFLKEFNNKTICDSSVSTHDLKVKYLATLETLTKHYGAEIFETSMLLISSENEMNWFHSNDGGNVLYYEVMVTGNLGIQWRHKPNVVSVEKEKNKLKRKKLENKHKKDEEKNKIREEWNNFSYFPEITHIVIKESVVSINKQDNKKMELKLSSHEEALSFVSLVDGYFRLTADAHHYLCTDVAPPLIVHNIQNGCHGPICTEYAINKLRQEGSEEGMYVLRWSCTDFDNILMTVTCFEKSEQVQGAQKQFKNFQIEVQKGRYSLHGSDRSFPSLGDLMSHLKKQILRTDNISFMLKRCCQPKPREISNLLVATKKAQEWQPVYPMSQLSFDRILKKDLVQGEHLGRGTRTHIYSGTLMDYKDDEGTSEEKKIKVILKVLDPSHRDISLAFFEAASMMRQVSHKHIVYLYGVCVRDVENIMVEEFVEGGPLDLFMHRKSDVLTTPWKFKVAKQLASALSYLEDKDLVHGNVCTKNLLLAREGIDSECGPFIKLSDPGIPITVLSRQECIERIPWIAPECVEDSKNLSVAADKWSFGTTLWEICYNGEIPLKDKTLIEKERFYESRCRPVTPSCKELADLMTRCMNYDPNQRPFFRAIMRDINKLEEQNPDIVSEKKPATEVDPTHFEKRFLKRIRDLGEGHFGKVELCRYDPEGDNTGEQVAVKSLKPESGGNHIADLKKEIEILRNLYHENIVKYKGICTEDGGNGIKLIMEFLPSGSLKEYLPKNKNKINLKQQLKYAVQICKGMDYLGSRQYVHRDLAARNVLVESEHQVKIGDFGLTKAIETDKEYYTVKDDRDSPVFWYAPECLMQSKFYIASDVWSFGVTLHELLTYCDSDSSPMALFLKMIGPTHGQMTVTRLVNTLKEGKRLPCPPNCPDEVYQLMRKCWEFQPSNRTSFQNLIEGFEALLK

[23] = tested on: Phosphatidylinositol 4,5-bisphosphate 3-kinase catalytic subunit alpha isoform (Homo sapiens), P42336 [I800L]; details: Compound concentration 1000.0 nM
[24] = tested on: Epidermal growth factor receptor (Homo sapiens), P00533 [L858R]; details: Compound concentration 1000.0 nM
[25] = target: Aurora kinase C (Homo sapiens) (UniProt Q9UQB9); details: Compound concentration 1000.0 nM
[26] = target: Muscarinic acetylcholine receptor M3 (Homo sapiens) (UniProt P20309); details: Compound concentration 10.0 uM
[27] = target: Serine/threonine-protein kinase TBK1 (Homo sapiens) (UniProt Q9UHD2); details: Compound concentration 1000.0 nM
[28] = target: Tyrosine-protein kinase ABL2 (Homo sapiens) (UniProt P42684); details: Compound concentration 1000.0 nM
[29] = target: Activin receptor type-2B (Homo sapiens) (UniProt Q13705); details: Compound concentration 1000.0 nM
[30] = target: Serine/threonine-protein kinase SIK2 (Homo sapiens) (UniProt Q9H0K1); details: Compound concentration 1000.0 nM
[31] = target: Rho-associated protein kinase 1 (Homo sapiens) (UniProt Q13464); details: Compound concentration 1000.0 nM
[32] = target: Dual specificity protein kinase CLK2 (Homo sapiens) (UniProt P49760); details: Compound concentration 1000.0 nM
[33] = target: Cyclin-dependent kinase 13 (Homo sapiens) (UniProt Q14004); details: Compound concentration 1000.0 nM
[34] = target: 5'-AMP-activated protein kinase catalytic subunit alpha-2 (Homo sapiens) (UniProt P54646); details: Compound concentration 1000.0 nM
Sequence of 5'-AMP-activated protein kinase catalytic subunit alpha-2 (Homo sapiens) (P54646 whole entry, looked up, canonical isoform): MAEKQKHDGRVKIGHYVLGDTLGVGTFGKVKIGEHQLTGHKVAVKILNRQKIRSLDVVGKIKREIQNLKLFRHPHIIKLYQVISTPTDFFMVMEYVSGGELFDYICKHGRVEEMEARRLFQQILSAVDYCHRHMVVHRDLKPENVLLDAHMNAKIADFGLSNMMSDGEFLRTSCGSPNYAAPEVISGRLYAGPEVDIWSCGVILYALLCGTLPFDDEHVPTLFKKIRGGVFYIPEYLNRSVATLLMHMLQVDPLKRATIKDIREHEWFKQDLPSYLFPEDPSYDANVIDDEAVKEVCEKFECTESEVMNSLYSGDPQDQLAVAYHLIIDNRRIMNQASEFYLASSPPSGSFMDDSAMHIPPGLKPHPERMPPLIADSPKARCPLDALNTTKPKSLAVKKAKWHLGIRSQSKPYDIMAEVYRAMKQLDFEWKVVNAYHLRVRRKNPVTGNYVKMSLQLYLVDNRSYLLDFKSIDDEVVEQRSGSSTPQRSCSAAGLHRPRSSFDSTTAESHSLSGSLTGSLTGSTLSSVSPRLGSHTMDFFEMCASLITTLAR

[35] = tested on: Phosphatidylinositol 4,5-bisphosphate 3-kinase catalytic subunit alpha isoform (Homo sapiens), P42336 [M1043I]; details: Compound concentration 1000.0 nM
[36] = target: Serine/threonine-protein kinase D3 (Homo sapiens) (UniProt O94806); details: Compound concentration 1000.0 nM
[37] = target: Tyrosine-protein kinase JAK1 (Homo sapiens) (UniProt P23458); details: Compound concentration 1000.0 nM; remark: listed apart in the source
[38] = target: Serine/threonine-protein kinase RIO3 (Homo sapiens) (UniProt O14730); details: Compound concentration 1000.0 nM
[39] = target: D(3) dopamine receptor (Homo sapiens) (UniProt P35462); details: Compound concentration 10.0 uM
[40] = tested on: ALK tyrosine kinase receptor (Homo sapiens), Q9UM73 [C1156Y]; details: Compound concentration 1000.0 nM
[41] = target: Cyclin-dependent kinase-like 1 (Homo sapiens) (UniProt Q00532); details: Compound concentration 1000.0 nM
[42] = target: Serine/threonine-protein kinase D2 (Homo sapiens) (UniProt Q9BZL6); details: Compound concentration 1000.0 nM
[43] = target: Tyrosine-protein kinase BTK (Homo sapiens) (UniProt Q06187); details: Compound concentration 1000.0 nM
[44] = target: Ribosomal protein S6 kinase alpha-6 (Homo sapiens) (UniProt Q9UK32); details: Compound concentration 1000.0 nM
Sequence of Ribosomal protein S6 kinase alpha-6 (Homo sapiens) (Q9UK32 whole entry): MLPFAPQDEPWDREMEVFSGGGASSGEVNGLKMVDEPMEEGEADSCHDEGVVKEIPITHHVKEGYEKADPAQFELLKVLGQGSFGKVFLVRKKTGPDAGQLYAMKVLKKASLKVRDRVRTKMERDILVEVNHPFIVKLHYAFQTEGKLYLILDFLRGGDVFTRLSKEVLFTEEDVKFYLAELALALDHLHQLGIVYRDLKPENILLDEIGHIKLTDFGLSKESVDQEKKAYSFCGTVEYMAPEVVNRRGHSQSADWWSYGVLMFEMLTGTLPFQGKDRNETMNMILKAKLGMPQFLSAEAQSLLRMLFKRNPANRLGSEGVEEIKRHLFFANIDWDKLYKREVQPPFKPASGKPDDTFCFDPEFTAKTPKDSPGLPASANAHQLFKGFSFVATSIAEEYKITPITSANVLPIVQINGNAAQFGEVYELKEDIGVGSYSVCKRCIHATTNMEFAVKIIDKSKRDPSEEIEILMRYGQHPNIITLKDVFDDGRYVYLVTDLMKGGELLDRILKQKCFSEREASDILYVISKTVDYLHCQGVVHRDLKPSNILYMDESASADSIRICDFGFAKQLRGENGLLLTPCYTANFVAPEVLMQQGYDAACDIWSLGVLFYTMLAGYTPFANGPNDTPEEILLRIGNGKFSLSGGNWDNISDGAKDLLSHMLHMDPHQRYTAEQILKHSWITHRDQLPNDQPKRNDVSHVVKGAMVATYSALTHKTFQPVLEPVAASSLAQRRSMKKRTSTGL

[45] = target: 5-hydroxytryptamine receptor 1A (Homo sapiens) (UniProt P08908); details: Compound concentration 10.0 uM
[46] = target: Serine/threonine-protein kinase TAO3 (Homo sapiens) (UniProt Q9H2K8); details: Compound concentration 1000.0 nM

Sequence of Beta-2 adrenergic receptor (Homo sapiens) (P07550 whole entry, looked up): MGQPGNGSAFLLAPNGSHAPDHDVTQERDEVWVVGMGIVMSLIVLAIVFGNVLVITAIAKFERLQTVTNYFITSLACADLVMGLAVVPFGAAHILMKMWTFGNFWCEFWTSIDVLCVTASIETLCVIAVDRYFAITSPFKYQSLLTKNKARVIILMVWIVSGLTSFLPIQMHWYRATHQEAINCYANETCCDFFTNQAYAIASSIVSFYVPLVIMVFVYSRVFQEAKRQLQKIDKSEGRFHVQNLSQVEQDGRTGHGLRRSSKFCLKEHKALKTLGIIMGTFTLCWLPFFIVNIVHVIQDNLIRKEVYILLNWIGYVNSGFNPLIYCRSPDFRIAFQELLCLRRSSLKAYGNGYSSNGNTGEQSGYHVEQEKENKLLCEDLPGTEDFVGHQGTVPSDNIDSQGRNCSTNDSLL

FC(F)(F)c1ccc2c(c1)nc(-c1cccnc1)n2C1CC1 [MSD-CYP11B2-Negative-control]
residual activity [1]: 65% | residual activity [2]: 91% | inhibition [3]: 1.56% | Ki [4]: 1070 nM | residual activity [5]: 96% | residual activity [6]: 100% | residual activity [7]: 100% | residual activity [8]: 81% | residual activity [9]: 94% | residual activity [10]: 100% | inhibition [11]: -1.84% | residual activity [12]: 100% | residual activity [13]: 99% | residual activity [14]: 98% | residual activity [15]: 100% | inhibition [16]: 13.3% | residual activity [17]: 100% | residual activity [18]: 100% | residual activity [19]: 100% | residual activity [20]: 100% | residual activity [21]: 100% | residual activity [22]: 85% | residual activity [23]: 99% | residual activity [24]: 91% | residual activity [25]: 100% | inhibition [26]: -1.22% | residual activity [27]: 82% | residual activity [28]: 100% | residual activity [29]: 100% | residual activity [30]: 100% | residual activity [31]: 100% | residual activity [32]: 100% | residual activity [33]: 100% | residual activity [34]: 100% | residual activity [35]: 100% | residual activity [36]: 100% | residual activity [37]: 100% | residual activity [38]: 93% | inhibition [39]: -1.96% | residual activity [40]: 100% | residual activity [41]: 91% | residual activity [42]: 100% | residual activity [43]: 93% | residual activity [44]: 100% | inhibition [45]: 0.44% | residual activity [46]: 100%

CC(C)(O)c1cncc(-c2nc3ccc(F)cc3n2C2CC2)c1 [MSD-CYP11B2]
residual activity [1]: 84% | residual activity [2]: 100% | inhibition [3]: 2.65% | Ki [4]: 1540 nM | residual activity [5]: 100% | residual activity [6]: 100% | residual activity [7]: 100% | residual activity [8]: 86% | residual activity [9]: 100% | residual activity [10]: 100% | inhibition [11]: -8.65% | residual activity [12]: 100% | residual activity [13]: 91% | residual activity [14]: 94% | residual activity [15]: 100% | inhibition [16]: 70.1% | residual activity [17]: 100% | residual activity [18]: 100% | residual activity [19]: 100% | residual activity [20]: 93% | residual activity [21]: 100% | residual activity [22]: 80% | residual activity [23]: 90% | residual activity [24]: 100% | residual activity [25]: 100% | inhibition [26]: 1.04% | residual activity [27]: 72% | residual activity [28]: 100% | residual activity [29]: 85% | residual activity [30]: 100% | residual activity [31]: 99% | residual activity [32]: 100% | residual activity [33]: 96% | residual activity [34]: 100% | residual activity [35]: 100% | residual activity [36]: 100% | residual activity [37]: 100% | residual activity [38]: 100% | inhibition [39]: -6.18% | residual activity [40]: 100% | residual activity [41]: 100% | residual activity [42]: 100% | residual activity [43]: 83% | residual activity [44]: 100% | inhibition [45]: 1.22% | residual activity [46]: 100%

Source: ChEMBL document CHEMBL4507294, “Data for DCP probe MSD-CYP11B2” (2021)
